Reference: patent US9878992B2, “GDF-8 inhibitors” (Rigel Pharmaceuticals, Inc., priority 2012, dated 2018)

Experiments:
[1] = test system: GDF8 signaling; assay: AlphaScreen SureFire SMAD3 (p-Ser423/425) assay, GDF8-stimulated cells; assay type: cell-based; details: Mus musculus, MPC-11, inhibition of GDF8 signaling; pSMAD readout; MPC11; read-out: GDF pSMAD (MPC11)
Text: [The procedure below names another cell line; the source lists this cell line under the same test.] The p-SMAD-3 (Ser423/425) SureFire® assay has been designed to measure the phosphorylation of endogenous cellular p-SMAD-3 (Ser423/425) in cell lysates and is a system for the screening of both modulators of receptor activation (e.g. agonists and antagonists) as well as agents acting intracellularly, such as small molecule inhibitors of upstream events. The assay will measure p-SMAD-3 (Ser423/425) activation by either cloned or endogenous receptors, and can be applied to primary cells.
P-SMAD-3 (Ser423/425) SureFire® Assay Protocols
Step A: Preparation of Buffers
1× Lysis buffer: 1 ml of 5× Lysis buffer was diluted with 4 ml of sterile water. After dilution, excess 1× Lysis buffer can be frozen and thawed up to 5 times without loss in activity.
Activation buffer: The buffer was warmed slowly to 37° C. and gently mixed to re-suspend. Activation buffer can be stored at room temperature with no loss in activity.
Reaction buffer: The buffer was kept at 4° C. while in use.
AlphaScreen® Protein A IgG Kit: The kit was stored at 4° C. in the dark.
Reaction buffer+Activation buffer+AlphaScreen® Acceptor beads: Reaction buffer (40 parts), Activation Buffer (10 parts) and Acceptor beads (1 part) were mixed and the mixture was stored at room temperature and used the same day. Mixture was added to 384-well plates; excess mixture was discarded.
Dilution buffer+AlphaScreen® Donor beads: Dilution buffer (20 parts) and Donor beads (1 part) were mixed and the mixture was stored at room temperature and used the same day. Excess mixture was discarded.
Assay control samples: After reconstitution in 250 μl of water, lysates were at −20° C. in single use aliquots.
Step B: Preparation of Samples and Cells
96-well Assay Protocol for 293FT and RMS13 adherent cells can be carried out manually or in high throughput with liquid handling robots.
The cells (80 μL, of cells for 96 well plates) were plated in collagen coated tissue culture plates in RPMI or FreeStyle medium (Invitrogen) and incubated overnight. For manual analysis, 6 plates for GDF8, 6 plates for TGFβ, and optionally 6 plates for Alk5ca (ALK5 constitutively active) were used.
The compound dilution plates were prepared as follows: 12 μL of DMSO was transferred into first column of 96-well plate, and 16 μL of DMSO was transferred into columns 2-12 of the 96-well plate. 12 μL of compound solution was transferred into first column of the DMSO-containing 96-well plate. Three-fold dilution was performed up to column 10 of the DMSO-containing 96-well plate.
Step C: Treatment and Analysis
The plate containing cells were treated with compounds for about 10 minutes, and then ligand was added. GDF8 or TGFb was added to plates to stimulate. 293FL cells were stimulated for 90 minutes at 37° C.; and RMS13 cells were stimulated for 60 minutes at 37° C. The medium was then removed from the cells, and 1× Lysis Buffer (about 25 μL) was added and the plate was gently agitated on plate shaker for 5-10 minutes.
The lysate (5 μL) was then placed into 384-well shallow plates avoiding the generation of bubbles. To this, the Reaction Buffer+Activation Buffer+AlphaScreen® Acceptor beads mixture (5 μL) was added. The plate was sealed with adhesive cover and shielded from light (e.g., with metal foil), and agitated gently on plate shaker for 2 hours at room temperature.
Dilution buffer+AlphaScreen® Donor beads (2 μL) was then added, and the plate was intubated on the plate shaker for an additional 1½ hours. After completion, the plate was read on Synergy-4 or Enspire plate reader, using AlphaScreen® pSMAD3® settings.

[2] = target: MAP4K4 (Homo sapiens, UniProt O95819); assay: MAP4K4 inhibition; assay type: biochemical
Chain of MAP4K4 (O95819 whole entry, species assumed): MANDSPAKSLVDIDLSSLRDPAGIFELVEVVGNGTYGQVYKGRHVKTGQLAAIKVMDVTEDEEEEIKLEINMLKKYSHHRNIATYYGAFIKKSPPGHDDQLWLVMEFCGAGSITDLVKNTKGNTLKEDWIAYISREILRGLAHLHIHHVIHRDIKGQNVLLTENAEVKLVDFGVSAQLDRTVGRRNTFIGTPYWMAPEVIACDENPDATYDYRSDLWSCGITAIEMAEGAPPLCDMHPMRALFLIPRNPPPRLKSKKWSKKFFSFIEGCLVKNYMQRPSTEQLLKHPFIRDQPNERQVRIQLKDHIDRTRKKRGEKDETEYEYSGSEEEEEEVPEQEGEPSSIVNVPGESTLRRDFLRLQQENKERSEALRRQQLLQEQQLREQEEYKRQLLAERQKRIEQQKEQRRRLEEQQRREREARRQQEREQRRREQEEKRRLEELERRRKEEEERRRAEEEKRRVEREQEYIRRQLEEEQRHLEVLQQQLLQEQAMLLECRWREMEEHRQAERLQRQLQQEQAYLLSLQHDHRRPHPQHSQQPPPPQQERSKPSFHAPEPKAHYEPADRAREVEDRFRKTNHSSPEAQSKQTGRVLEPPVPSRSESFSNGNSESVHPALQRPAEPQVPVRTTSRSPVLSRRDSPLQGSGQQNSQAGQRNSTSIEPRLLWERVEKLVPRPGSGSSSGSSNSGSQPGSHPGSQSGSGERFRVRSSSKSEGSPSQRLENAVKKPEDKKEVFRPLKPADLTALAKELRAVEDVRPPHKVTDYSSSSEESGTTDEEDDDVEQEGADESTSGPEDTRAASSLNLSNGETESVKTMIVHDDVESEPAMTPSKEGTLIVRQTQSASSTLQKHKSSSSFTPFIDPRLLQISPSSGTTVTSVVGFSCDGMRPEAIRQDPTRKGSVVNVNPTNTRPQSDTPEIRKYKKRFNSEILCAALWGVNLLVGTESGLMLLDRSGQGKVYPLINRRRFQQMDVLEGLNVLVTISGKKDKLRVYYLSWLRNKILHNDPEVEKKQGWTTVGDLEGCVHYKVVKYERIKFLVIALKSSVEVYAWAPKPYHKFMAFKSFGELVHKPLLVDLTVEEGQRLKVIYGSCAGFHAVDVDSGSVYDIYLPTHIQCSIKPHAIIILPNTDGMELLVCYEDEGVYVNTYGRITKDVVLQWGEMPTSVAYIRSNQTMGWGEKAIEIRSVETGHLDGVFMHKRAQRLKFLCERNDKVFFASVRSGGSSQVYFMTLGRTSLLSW
Text: Such compounds are particularly useful in muscle disorders, such as cachexia and sarcopenia as MAP4K4 acts as a suppressor of skeletal muscle differentiation. See, Wang M, Amano S U, Flach R J, Chawla A, Aouadi M, Czech P. Molecular and cellular biology. 2013 February; 33(4): 678-87.

Structure (SMILES)	IC50 [1]	IC50 [2]
Cc1cc(-c2ncccc2-c2ccn3ncc(C(=O)N[C@@H]4C[C@@H]5CCCN5C(C)(C)C4)c3c2)ccc1F [Compound 745, N-((7R,8aS)-5,5-Dimethyloctahydroindolizin-7-yl)-5-(2-(4-difluoro-3-methylphenyl)pyridin-3-yl)pyrazolo[1,5-a]pyridine-3-carboxamide]	366 nM	–
Cc1cc(-c2ncccc2-c2ccc3nn(COP(=O)(O)O)cc3c2)ccc1F [Compound 172, [5-(2-(4-Fluoro-3methylphenyl)pyridin-3-yl)-2H-indazol-2-yl]methyl dihydrogen phosphate]	187 nM	–
Cc1cc(-c2ncc(F)cc2-c2ccc3[nH]ncc3c2)ccc1F [Compound 10, 5-(5-Fluoro-2-(4-fluoro-3-methylphenyl)pyridin-3-yl)-1H-indazole]	535 nM	–
Cc1cccc(-c2ncccc2-c2ccc3ncn(CCCON)c3c2)c1 [Compound 38]	3230 nM	–
Fc1ccc(Cl)cc1-c1ncccc1-c1ccc2nccn2n1 [Compound 937, 6-(2-(5-Chloro-2-fluorophenyl)pyridin-3-yl)imidazo[1,2-b]pyridazine]	207 nM	–
O=c1nc[nH]c2ccc(-c3cccnc3-c3cccc(Cl)c3)cc12 [Compound 389, 6-(2-(3-Chlorophenyl)pyridin-3-yl)quinazolin-4(1H)-one]	–	< 500 nM
Cc1cccc(-c2ncccc2-c2ccc3ncccc3c2)c1 [Compound 208, 6-(2-m-Tolylpyridin-3-yl)quinoline]	1150 nM	–
Cc1cc(-c2ncccc2-c2ccc3ncc(C(=O)N[C@@H]4C[C@@H]5CCCN5C(C)(C)C4)n3c2)ccc1F [Compound 744, N-((7R,8aS)-5,5-Dimethyloctahydroindolizin-7-yl)-6-(2-(4-fluoro-3-methylphenyl)pyridin-3-yl)imidazo[1,2-a]pyridine-3-carboxamide]	968 nM	–
Cc1cc(-c2ncccc2-c2ccc3ncccc3c2)ccc1F [Compound 207, 6-(2-(4-Fluoro-3-methylphenyl)pyridin-3-yl)quinoline]	2040 nM	–
Nc1ncnc2ccc(-c3cccnc3-c3cc(O)cc(F)c3)cc12 [Compound 494, 3-(3-(4-Aminoquinazolin-6-yl)pyridin-2-yl)-5-fluorophenol]	–	< 500 nM
[2H]C([2H])([2H])c1cccc(-c2ncccc2-c2ccc3ncc(C(C)=O)n3c2)c1 [Compound 606, 1-(6-(2-(3-(Methyl-d3)phenyl)pyridin-3-yl)imidazo[1,2-a]pyridin-3-yl)ethan-1-one]	1440 nM	–
COc1cc(-c2cnc3ccc(-c4cccnc4-c4ccc(F)c(C)c4)cn23)cc(OC)c1OC [Compound 577, 6-(2-(4-Fluoro-3-methylphenyl)pyridin-3-yl)-3-(3,4,5-trimethoxyphenyl)imidazo[1,2-a]pyridine]	2260 nM	–
Nc1ncnc2ccc(-c3cccnc3-c3cc(F)cc(Cl)c3)cc12 [Compound 460, 6-(2-(3-Chloro-5-fluorophenyl)pyridin-3-yl)quinazolin-4-amine]	–	< 500 nM
Nc1ncnc2ccc(-c3cccnc3-c3cccc(O)c3)cc12 [Compound 456, 3-(3-(4-Aminoquinazolin-6-yl)pyridin-2-yl)phenol]	–	< 500 nM
Nc1ncnc2ccc(-c3cccnc3-c3cc(Cl)ccc3F)cc12 [Compound 818, 6-(2-(5-Chloro-2-fluorophenyl)pyridin-3-yl)quinazolin-4-amine]	–	< 500 nM
Cc1cc(-c2ncccc2-c2ccc3ncnc(OCCN4CCOCC4)c3c2)ccc1F [Compound 425, 4-(2-((6-(2-(4-Fluoro-3-methylphenyl)pyridin-3-yl)quinazolin-4-yl)oxy)ethyl)morpholine]	537 nM	–
Nc1ncnc2ccc(-c3cccnc3-c3ccc(F)c(Cl)c3)cc12 [Compound 448, 6-(2-(3-Chloro-4-fluorophenyl)pyridin-3-yl)quinazolin-4-amine]	–	< 500 nM
Cc1cc(-c2ncccc2-c2ccc3[nH]ncc3c2)ccc1F [Compound 63, 5-(2-(4-Fluoro-3-methylphenyl)pyridin-3-yl)-1H-indazole]	–	< 500 nM
Cc1cc(-c2ncccc2-c2ccc3ncnc(N4CCOCC4)c3c2)ccc1F [Compound 385, 4-(6-(2-(4-Fluoro-3-methylphenyl)pyridin-3-yl)quinazolin-4-yl)morpholine]	2560 nM	–
Cc1cc(-c2ncc(CO)cc2-c2ccc3nccnc3c2)ccc1F [Compound 222, (6-(4-Fluoro-3-methylphenyl)-5-(quinoxalin-6-yl)pyridin-3-yl)methanol]	5620 nM	–
COc1ncnc2ccc(-c3cccnc3-c3cccc(O)c3)cc12 [Compound 378, 3-(3-(4-Methoxyquinazolin-6-yl)pyridin-2-yl)phenol]	558 nM	–
